Consider four molecules from EP1779117B1, “METHODS FOR MEASURING ADAMTS13 ACTIVITY ON THE SURFACE OF PLATELETS” (American Diagnostica Inc., priority 2004, dated 2006).

Starred links: 1 amine or outer side, 2 acyl side, 3 side chain; linkers in the order of their positions; H or OH if unused. Residues, ends and D or L forms follow the SMILES beside them. *: point of attachment. EDANS = O=S(=O)(O)c1cccc2c(NCCN*)cccc12; pNA = O=[N+]([O-])c1ccc(N*)cc1; AMC = Cc1cc(=O)oc2cc(N*)ccc12; Suc = O=C(CCC(=O)[*:2])[*:1]

One experiment concerns ADAMTS13. Briefly: Cleavage of peptidyl substrates by ADAMTS13 in PRP (optical density / fluorescence). The format is biochemical. As to conditions: for cleavage by ADAMTS13 in PRP: normal PRP 20 µl, 10 mM Tris-HCl pH 8.0, 37° C, Ex 360 nm/ Em 460 nm. The method, then:
As discussed above, Furlan et al. reported that some peptidyl-pNA moieties, such as XLY-pNA and XVY-pNA, were not substrates for ADAMTS13. We prepared LVY-pNA and tested it for its ability to be cleaved by ADAMTS 13. The results shown in Figure 2 confirm the findings of Furlan et al., i.e., LVY-pNA was not cleaved by ADAMTS13.
In order to determine the effect of modifying the length of the peptide sequence conjugated to the AMC fluorochrome, normal PRP (20 µl) was incubated at 37° C with a final concentration of 0.8 mM Suc-LLVY-AMC or LVY-AMC in 10 mM Tris-HCl pH 8.0 buffer in total volume of 200 µl. Fluorescence was measured using a microtiter fluorophotometric plate reader (Ex 360 nm/ Em 460 nm).

Experiment [1] concerns ADAMTS13 found on platelets. Put plainly: FRET substrate cleavage by isolated platelets. The format is biochemical. The settings on record: 8 µg/ml substrate, 10mM Tris-HCl pH 8.0, 37°C, Ex 360 nm/ Em 440 nm, Figure 4. Here is the method:
ADAMTS13 activity was measured using a fluorescent substrate attached to a donor moiety and an acceptor moiety that functions by fluorescence resonance energy transfer (FRET). The ADAMTS 13 selective substrate, NH2-Arg-Lys(DABCYL)-NLVYMVTGD(EDANS)-Arg-COOH, was used in this example. The NLVYMVTGD peptide sequence of this substrate is homologous to the ADAMTS13 cleavage site on VWF. The intact peptidyl substrate has low fluorescence, due to quenching of the […]. Cleavage of the substrate between the tyrosine and methionine of the peptide sequence results in an increase in fluorescence.
Isolated platelets in 10mM Tris-HCl pH 8.0 assay buffer were incubated with a final concentration of 8 µg/ml of the FRET substrate at 37°C. The fluorescence was measured in a spectrofluorometric plate reader (Ex 360 nm/ Em 440 nm). […] The skilled artisan can design other FRET substrates for measuring ADAMTS 13 activity using his or her own knowledge and the teachings herein.

For `Cc1cc(=O)oc2cc(NC(=O)[C@H](Cc3ccc(O)cc3)NC(=O)[C@@H](NC(=O)[C@@H](N)CC(C)C)C(C)C)ccc12` [LVY-AMC, Leu-Val-Tyr-AMC] (H-Leu-Val-Tyr-{AMC}), in the experiment on ADAMTS13 (0.8 mM substrate, Figure 3), the “cleavage by ADAMTS13 in PRP” value is listed as “cleaved”.

Consider `CC(C)C[C@H](N)C(=O)N[C@H](C(=O)N[C@@H](Cc1ccc(O)cc1)C(=O)Nc1ccc([N+](=O)[O-])cc1)C(C)C` [LVY-pNA] (H-Leu-Val-Tyr-pNA), for which, in the experiment on ADAMTS13 (LVY-pNA tested as substrate, Figure 2), the “cleavage by ADAMTS13” value is given as “not cleaved”. With `Cc1cc(=O)oc2cc(NC(=O)[C@H](Cc3ccc(O)cc3)NC(=O)[C@@H](NC(=O)[C@H](CC(C)C)NC(=O)[C@H](CC(C)C)NC(=O)CCC(=O)O)C(C)C)ccc12` [Suc-LLVY-AMC, Suc-Leu-Leu-Val-Tyr-AMC] (Suc-LLVY-{AMC}), in the experiment with ADAMTS13 (0.8 mM substrate, Figure 3), the “cleavage by ADAMTS13 in PRP” value is given as “cleaved”. For the same molecule, in the experiment with ADAMTS13 (normal PRP, 0.8 mM substrate, 37° C, Figure 3), the “fluorescence signal over time compared to the other AMC substrate” value is “higher signal over time”. In the case of “NH2-Arg-Lys-(DABCYL)- Asn-Leu- Val-Tyr-Met- Val- Thr-Gly-Asp-(EDANS)-Arg-COOH ({H2N-Arg-K(DABCYL)}-NLVYMVTGD(EDANS)R-OH; also: EDANS after Asp (on Asp side chain or between Asp and Arg))”, the “fluorescence on incubation with platelets (cleavage of FRET substrate)” value in experiment [1] was “increased fluorescence over time”.
